# Molecular target: T1, MD-2 (measured as TLR4/MD-2 complex) (Homo sapiens, UniProt Q9Y6Y9)
# T1 construct: gene LY96; recombinant human TLR4/MD-2; His-Flag TLR4/MD-2 protein; with TLR4
# Experiment: SPR (Biacore T200, CM5 chip, immobilised TLR4/MD-2 complex)
# Type: binding
# T1 sequence (Q9Y6Y9 19-160): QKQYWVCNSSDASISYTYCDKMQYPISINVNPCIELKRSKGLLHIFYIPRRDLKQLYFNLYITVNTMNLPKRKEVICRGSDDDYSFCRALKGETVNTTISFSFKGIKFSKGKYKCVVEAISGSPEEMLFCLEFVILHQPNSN
# T1 sequence (O00206 24-839 partner): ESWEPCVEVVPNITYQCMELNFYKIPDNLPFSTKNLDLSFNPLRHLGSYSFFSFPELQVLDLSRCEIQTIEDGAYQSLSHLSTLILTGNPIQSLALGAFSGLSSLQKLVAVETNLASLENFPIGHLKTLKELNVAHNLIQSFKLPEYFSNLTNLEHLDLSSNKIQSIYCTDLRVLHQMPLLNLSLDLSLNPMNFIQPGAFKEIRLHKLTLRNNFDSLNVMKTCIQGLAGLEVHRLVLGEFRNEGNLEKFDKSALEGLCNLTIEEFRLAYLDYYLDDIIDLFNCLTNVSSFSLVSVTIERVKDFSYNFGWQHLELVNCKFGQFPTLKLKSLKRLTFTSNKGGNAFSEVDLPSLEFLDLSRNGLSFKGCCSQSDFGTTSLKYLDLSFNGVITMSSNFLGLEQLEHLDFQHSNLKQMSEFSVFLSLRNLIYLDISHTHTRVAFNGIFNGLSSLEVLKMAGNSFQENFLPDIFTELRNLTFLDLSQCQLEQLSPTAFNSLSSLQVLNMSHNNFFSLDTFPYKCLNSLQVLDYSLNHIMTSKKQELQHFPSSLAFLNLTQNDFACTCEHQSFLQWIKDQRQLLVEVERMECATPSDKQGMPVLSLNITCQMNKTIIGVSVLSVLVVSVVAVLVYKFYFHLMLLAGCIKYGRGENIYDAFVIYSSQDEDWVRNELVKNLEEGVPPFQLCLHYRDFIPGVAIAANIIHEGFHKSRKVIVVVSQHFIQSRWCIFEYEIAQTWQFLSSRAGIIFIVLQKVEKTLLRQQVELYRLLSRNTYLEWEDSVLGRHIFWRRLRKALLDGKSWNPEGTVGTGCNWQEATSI
smiles,measurement,value
"CC(C)=CCC[C@](C)(O)[C@H]1CC[C@]2(C)[C@@H]1[C@H](O)C[C@@H]1[C@@]3(C)CC[C@H](O[C@@H]4O[C@H](CO)[C@@H](O)[C@H](O)[C@H]4O)C(C)(C)[C@@H]3CC[C@]12C [G-Rh2, Ginsenoside Rh2]",Kd,71.2 µM
